# From US9193819B2, “Polymers, substrates, methods for making such, and devices comprising the same” (Avertica, Inc., priority 2013, dated 2015)
# Structures can show the parent of a compound that is named as a salt.
# System: mushroom tyrosinase (polyphenol oxidase) Sigma T3824
# Experiment: Testing of polymer production in enzymatic tyrosinase (polyphenol oxidase) reaction
# Type: biochemical
# Parameters: key: +++: Reacted within about 1 hour; ++: reacted within about 3 hours; +: reacted within about 24 hours; +/−: inconclusive results; −: no reaction
# Protocol: All reactions were carried out in approximately 50 mM potassium phosphate buffer, pH 6.5 with approximately 5 mM substrate and mushroom tyrosinase (polyphenol oxidase) Sigma T3824 in an amount of 100 to 10,000 units. Reaction volumes varied from 200 μl to 2 ml. In cases where substrates were not completely solubilized, then a saturated solution was used as the limit of solubility. In some cases, a solution of DMSO was used to increase solubility of the substrates. […] The reactions were observed over a 24 hour period for the production of polymers, and the presence and color of polymer and solution was recorded.
# The production of polymers in each reaction was visible as a precipitate in the well of a 96 well plate or in the reaction mixture on a glass slide.
# [1] = as E1, substrate (or a marked component) dissolved in 20% DMSO
# [2] = approx. 50 mM potassium phosphate buffer pH 6.5, approx. 5 mM substrate, 100 to 10,000 units enzyme, observed over 24 hours
SMILES,Result (polymer production in tyrosinase reaction) [1],Result (polymer production in tyrosinase reaction) [2]
"Oc1ccc(-c2cc(-c3ccc(O)cc3)cc(-c3ccc(O)cc3)c2)cc1 [1,3,5 Tris(4hydroxyphenyl)benzene]",+ (reacted within about 24 hours),
Oc1ccc2c(c1)[nH]c1ccccc12 [2 Hydroxy carbazole],−,
"Oc1ccc2cc(O)ccc2c1 [2,6 dihydroxnaphthalene]",,+ (reacted within about 24 hours)
Oc1ccc2[nH]ccc2c1 [5-hydroxyindole],,+++ (Reacted within about 1 hour)
Oc1ccc2cc[nH]c2c1 [6 Hydroxyindole],,++ (reacted within about 3 hours)
Cl.NCCc1ccccc1 [Beta phenylethylamine HCL],,+/−
CC1=NCCc2c1[nH]c1cc(O)ccc21 [Harmalol HCl dehydrate],−,
c1ccc2[nH]ccc2c1 [Indole],,−
CN[C@@H](Cc1ccc(O)cc1)C(=O)O [N-methyl tyrosine],,++ (reacted within about 3 hours)
Cl.NCCc1ccc(O)cc1 [Tyramine HCl],,+++ (Reacted within about 1 hour)
NCCc1ccc(O)cc1 [Tyramine],,+++ (Reacted within about 1 hour)
N[C@@H](Cc1ccc(O)cc1)C(=O)O [Tyrosine],,++ (reacted within about 3 hours)
